Reference: the CombiSolv-Exp solvation set (Vermeire and Green 2021)

Assay: solvent given as SMILES

c1ccc(-c2ccccc2)cc1
Details | solvation free energy, 298 K [kcal/mol]
in C1COCCO1 | -9.29
in CC(C)(C)O | -8.06
in CC(C)CC(C)(C)C | -8.32
in CC(C)CC(C)O | -8.13
in CC(C)CCO | -8.16
in CC(C)CO | -8.03
in CC(C)O | -8.09
in CC(C)OCCO | -8.73
in CCC(C)(C)O | -8.3
in CCC(C)O | -8.19
in CCCC(C)CO | -8.24
in CCCC(C)O | -8.25
in CCCCC(CC)CO | -8.27
in CCCCCC | -8.53
in CCCCCCC | -8.54
in CCCCCCCC | -8.53
in CCCCCCCCC=CCCCCCCCC(=O)OCC(COC(=O)CCCCCCCC=CCCCCCCCC)OC(=O)CCCCCCCC=CCCCCCCCC | -8.8
in CCCCCCCCCC | -8.49
in CCCCCCCCO | -8.39
in CCCCCCCO | -8.36
in CCCCCCO | -8.34
in CCCCCO | -8.34
in CCCCOCCCC | -8.85
in CCCCOCCO | -8.65
in CCCO | -8.25
in CCCOCCO | -8.76
in CCO | -8.23
in CCOCC | -8.59
in CCOCCO | -8.74
in CN(C)C=O | -9.33
in CO | -7.88
in COC(C)(C)C | -9.04
in COC(C)CCO | -8.68
in ClC(Cl)(Cl)Cl | -9.22
in ClCCCl | -9.34
in ClCCl | -9.4
in Clc1ccccc1 | -9.26
in O | -2.66

CCCCCC(=O)CC(C)=O
Details | solvation free energy, 298 K [kcal/mol]
in O | -4.3

Nc1ccc2c(c1)C(=O)c1ccccc1C2=O
Details | solvation free energy, 298 K [kcal/mol]
in O | -11.5

CCC(=O)OC
Details | solvation free energy, 298 K [kcal/mol]
in C1CCOC1 | -4.45
in CCCCCC | -3.65
in CCCCCCC | -3.63
in CCCCCCCC | -3.57
in CCCCCCCCCC | -3.49
in CCCO | -3.89
in CCO | -4.15
in CO | -4.32
in O | -2.93

O=c1[nH]cc(Cl)c(=O)[nH]1
Details | solvation free energy, 298 K [kcal/mol]
in O | -17.7

CCOCCOCC
Details | solvation free energy, 298 K [kcal/mol]
in O | -3.54

Cc1cc(C)c(C)cc1C
Details | solvation free energy, 298 K [kcal/mol]
in CC(C)(C)O | -6.62
in CC(C)CC(C)(C)C | -7.1
in CC(C)CC(C)O | -6.69
in CC(C)CCO | -6.63
in CC(C)CO | -6.52
in CC(C)O | -6.49
in CCC(C)O | -6.62
in CCCC(C)O | -6.69
in CCCCCC | -7.24
in CCCCCCC | -7.19
in CCCCCCCC | -7.14
in CCCCCCCCC=CCCCCCCCC(=O)OCC(COC(=O)CCCCCCCC=CCCCCCCCC)OC(=O)CCCCCCCC=CCCCCCCCC | -7.13
in CCCCCCCCCC | -7.08
in CCCCCCCCCCO | -6.84
in CCCCCCCCO | -6.81
in CCCCCCCO | -6.78
in CCCCCCO | -6.75
in CCCCCO | -6.71
in CCCCO | -6.71
in CCCCOCCCC | -7.19
in CCCO | -6.54
in CCO | -6.44
in CCOCC | -7.34
in CO | -6.18
in O | -0.72

Cn1cccc1
Details | solvation free energy, 298 K [kcal/mol]
in O | -2.89

Cc1cc(NS(=O)(=O)c2ccc(N)cc2)nc(C)n1
Details | solvation free energy, 298 K [kcal/mol]
in O | -21.9

CCCCCCOC(=O)c1ccccc1C(=O)OCCCCCC
Details | solvation free energy, 298 K [kcal/mol]
in O | -6.78

CCCCC(C)=O
Details | solvation free energy, 298 K [kcal/mol]
in C1COCCO1 | -5.69
in CC(C)CC(C)(C)C | -4.72
in CCCCCC | -4.68
in CCCCCCC | -4.55
in CCCCCCCC | -4.6
in CCCCCCCCCC | -4.61
in CCCCCCCCCCCCCCCC | -4.39
in CCCCCCCCO | -5.02
in CO | -5.21
in ClC(Cl)(Cl)Cl | -5.36
in NC=O | -4.46
in O | -3.3
in [2H]O[2H] | -3.24

CCc1ccc2ccccc2c1
Details | solvation free energy, 298 K [kcal/mol]
in O | -2.26

CCC(C)OC(C)CC (stereo not given)
Details | solvation free energy, 298 K [kcal/mol]
in O | -0.8

CCCOC(=O)c1ccc(O)cc1
Details | solvation free energy, 298 K [kcal/mol]
in O | -9.37
